Results: EP4596536A1 (Shanghai de Novo Pharmatech Co., Ltd., priority 2022, dated 2024)

Columns and labels:
TLR8 = target: T1, TLR8 (Homo sapiens, UniProt Q9NR97); assay: HEK-BLUE-hTLR8 cell SEAP reporter assay (Quanti-Blue); type: cell-based; conditions: HEK-BLUE-hTLR8 cells, 0.5 nM to 15 µM, 24 hours
T1 construct: host or cells: HEK293 (HEK-BLUE-hTLR8)
T1 sequence (Q9NR97 27-1041): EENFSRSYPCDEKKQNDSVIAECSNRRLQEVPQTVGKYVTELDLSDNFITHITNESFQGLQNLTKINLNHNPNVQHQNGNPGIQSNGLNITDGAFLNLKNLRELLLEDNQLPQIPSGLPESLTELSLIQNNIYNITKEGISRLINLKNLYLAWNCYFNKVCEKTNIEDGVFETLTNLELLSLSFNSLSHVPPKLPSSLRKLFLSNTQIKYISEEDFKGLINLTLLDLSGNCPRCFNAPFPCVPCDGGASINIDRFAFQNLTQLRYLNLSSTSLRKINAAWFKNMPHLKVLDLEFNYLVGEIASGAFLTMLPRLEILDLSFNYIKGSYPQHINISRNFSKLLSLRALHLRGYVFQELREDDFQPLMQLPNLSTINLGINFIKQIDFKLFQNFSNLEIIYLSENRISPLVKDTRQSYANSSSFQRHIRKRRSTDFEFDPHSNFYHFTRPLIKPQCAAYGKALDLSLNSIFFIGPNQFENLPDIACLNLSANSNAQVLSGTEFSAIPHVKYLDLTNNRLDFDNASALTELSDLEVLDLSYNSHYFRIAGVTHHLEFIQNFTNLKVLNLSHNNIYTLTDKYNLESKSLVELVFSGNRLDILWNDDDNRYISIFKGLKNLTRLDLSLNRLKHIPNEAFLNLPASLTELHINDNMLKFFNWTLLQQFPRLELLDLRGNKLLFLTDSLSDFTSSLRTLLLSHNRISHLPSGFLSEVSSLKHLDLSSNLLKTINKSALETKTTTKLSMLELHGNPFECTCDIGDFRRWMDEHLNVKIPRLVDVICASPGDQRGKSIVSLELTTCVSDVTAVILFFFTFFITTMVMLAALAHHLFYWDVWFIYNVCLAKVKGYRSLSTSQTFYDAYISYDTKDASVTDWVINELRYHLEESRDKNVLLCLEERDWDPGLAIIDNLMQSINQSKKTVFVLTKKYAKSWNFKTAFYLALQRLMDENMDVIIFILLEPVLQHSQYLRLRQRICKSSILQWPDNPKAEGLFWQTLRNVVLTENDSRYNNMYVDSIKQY
Method: (§1) In this experiment, the biological activity of TLR7 and TLR8 in the compound of formula I was detected using cell tests. This method was conducted in human embryonic kidney cells (HEK293) expressing TLR family members such as TLR4, TLR7, TLR8 or TLR9. TLR agonists activate TLRs, triggering the activation of downstream NF-kB, which in turn activates the secreted embryonic alkaline phosphatase (SEAP) reporter gene. The activity of SEAP was detected using the Quanti-Blue (InvivoGen) reagent, thereby reflecting the activities of TLR7 and TLR8 agonists.
(§2) The detailed experimental method was as follows: HEK-BLUE-hTLR7 and HEK-BLUE-hTLR8 cell lines were purchased from Invivogen Company and cultured in DMEM medium containing 4.5 g/L glucose (Sigma-Aldrich) and 10% fetal bovine serum under the conditions of temperature 37°C, humidity 95% and 5% CO2.
(§3) The compound was tested at a concentration ranging from 0.5 nM to 15 µM over a total of 10 concentration gradients. TLR7 or TLR8 agonists with known activity were added as positive controls, and 1 µL of DMSO was added as a negative control.
(§4) The cells were treated as follows: the cells were removed from the culture dish and centrifuged to remove the medium, and resuspended in a T-150 bottle with 10 mL of preheated PBS, 12 mL of preheated medium was added, and the cells were gently pipetted up and down and counted under a microscope. A 200,000/mL single-cell suspension was immediately prepared with medium and added to a 96-well plate at 200 µL/well (40,000/well). The final concentration of DMSO was 0.5%.
(§5) The compound was added and incubated in an incubator at 37°C, 5% CO2 for 24 hours.
(§6) A supernatant at 20 µL/well was aspirated into 180 µL of preheated Quanti-Blue at 37°C, incubated at 37°C for 1.5 hours, and detected for the absorbance (OD value) with a spectrophotometer at 650 nm. The formula for calculating the agonistic effect is as follows:
(§7) Effect % = (average OD value of the drug-administered group - average OD value of the DMSO group) / (average OD value of the positive drug group - average OD value of the DMSO group) × 100
(§8) Graphpad software was used to fit the concentration-effect curve, and EC50 was calculated. The test results are shown in Table 15 (A denotes < 250 nM, B denotes 250 nM-1 µM, C denotes 1 µM-2 µM, D denotes > 2 µM, and - denotes not listed or not tested): Table 15

TLR7 = target: T2, TLR7 (Homo sapiens, UniProt Q9NYK1); assay: HEK-BLUE-hTLR7 cell SEAP reporter assay (Quanti-Blue); type: cell-based; conditions: HEK-BLUE-hTLR7 cells, 0.5 nM to 15 µM, 24 hours
T2 construct: host or cells: HEK293 (HEK-BLUE-hTLR7)
T2 sequence (Q9NYK1 27-1049): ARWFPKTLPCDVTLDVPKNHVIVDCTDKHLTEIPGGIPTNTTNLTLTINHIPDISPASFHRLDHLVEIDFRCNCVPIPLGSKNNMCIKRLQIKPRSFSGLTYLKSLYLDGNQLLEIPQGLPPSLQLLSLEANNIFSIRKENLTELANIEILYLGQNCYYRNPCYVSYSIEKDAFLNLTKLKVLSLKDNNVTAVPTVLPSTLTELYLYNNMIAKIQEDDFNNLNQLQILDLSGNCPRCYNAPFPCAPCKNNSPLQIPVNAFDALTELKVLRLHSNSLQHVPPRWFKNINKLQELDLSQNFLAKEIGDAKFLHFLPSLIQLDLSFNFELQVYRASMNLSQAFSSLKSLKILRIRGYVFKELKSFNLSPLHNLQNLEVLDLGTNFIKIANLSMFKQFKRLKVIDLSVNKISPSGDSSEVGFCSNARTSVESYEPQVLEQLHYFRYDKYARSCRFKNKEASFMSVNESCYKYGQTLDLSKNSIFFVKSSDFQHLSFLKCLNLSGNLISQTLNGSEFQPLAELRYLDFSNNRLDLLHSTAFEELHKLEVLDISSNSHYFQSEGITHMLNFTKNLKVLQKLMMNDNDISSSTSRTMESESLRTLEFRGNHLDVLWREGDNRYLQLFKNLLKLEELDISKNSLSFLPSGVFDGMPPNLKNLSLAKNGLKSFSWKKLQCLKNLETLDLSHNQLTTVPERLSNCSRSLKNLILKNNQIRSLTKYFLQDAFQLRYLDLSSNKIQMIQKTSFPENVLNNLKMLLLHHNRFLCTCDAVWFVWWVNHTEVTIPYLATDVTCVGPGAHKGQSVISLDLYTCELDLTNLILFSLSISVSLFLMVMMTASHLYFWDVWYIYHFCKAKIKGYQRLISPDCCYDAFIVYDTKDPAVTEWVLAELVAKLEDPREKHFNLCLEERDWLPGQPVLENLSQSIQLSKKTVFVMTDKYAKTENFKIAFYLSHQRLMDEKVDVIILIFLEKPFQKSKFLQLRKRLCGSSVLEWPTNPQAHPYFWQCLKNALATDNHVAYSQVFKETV
Method: as §1, §2, §3, §4, §5, §6, §7, §8

Compound	EC50 (TLR8)	EC50 (TLR7)
CCCN(CCC)C(=O)C1=Cc2ccc(C3(C(=O)Nc4cnc5c(c4)CNCC5)CC3)cc2N=C(N)C1 [Compound 1, 2-amino-N,N-dipropyl-8-(1-((5,6,7,8-tetrahydro-1,6-naphthyridin-3-yl)carbamoyl)cyclopropyl)-3H-benzo[b]azepine-4-formamide]	< 250 nM	> 2000 nM
CCCN(CCO)C(=O)C1=Cc2ccc(C3(C(=O)Nc4cncc(CN)c4)CC3)cc2N=C(N)C1 [Compound 7, 2-amino-8-(1-((5-(aminomethyl)pyridin-3-yl)carbamoyl)cyclopropyl)-N-(2-hydroxyethyl)-N-propyl-3H-benzo[b]azepine-4-formamide]	< 250 nM	> 2000 nM
CCCN(CCO)C(=O)C1=Cc2ccc(C3(C(=O)Nc4cnc5c(c4)CNCC5)CC3)cc2N=C(N)C1 [Compound 2, 2-amino-N-(2-hydroxyethyl)-N-propyl-8-(1-((5,6,7,8-tetrahydro-1,6-naphthyridin-3-yl)carbamoyl)cyclopropyl)-3H-benzo[b]azepine-4-formamide]	250 to 1000 nM	> 2000 nM

Now from value to compound:

EC50 (TLR8)	EC50 (TLR7)	Compound
250 to 1000 nM	> 2000 nM	CCCN(CCO)C(=O)C1=Cc2c(F)cc(C3(C(=O)Nc4cnc5c(c4)CNCC5)CC3)cc2N=C(N)C1 [Compound 6, 2-amino-6-fluoro-N-(2-hydroxyethyl)-N-propyl-8-(1-((5,6,7,8-tetrahydro-1,6-naphthyridin-3-yl)carbamoyl)cyclopropyl)-3H-benzo[b]azepine-4-formamide]
< 250 nM	> 2000 nM	CCCN(CCC)C(=O)C1=Cc2c(F)cc(C3(C(=O)Nc4cnc5c(c4)CNCC5)CC3)cc2N=C(N)C1 [Compound 3, 2-amino-6-fluoro-N,N-dipropyl-8-(1-((5,6,7,8-tetrahydro-1,6-naphthyridin-3-yl)carbamoyl)cyclopropyl)-3H-benzo[b]azepine-4-formamide]
